Experimental data from US11377425B1, “Small molecule modulators of IL-17” (LEO Pharma A/S, priority 2018, dated 2022).
pEC50: −log10 of the molar value.

Target: T1, human IL-17AA (Homo sapiens, UniProt Q16552)
T1 construct: host or cells: HEK (human embryonic kidney) cells
T1 sequence (Q16552 24-155): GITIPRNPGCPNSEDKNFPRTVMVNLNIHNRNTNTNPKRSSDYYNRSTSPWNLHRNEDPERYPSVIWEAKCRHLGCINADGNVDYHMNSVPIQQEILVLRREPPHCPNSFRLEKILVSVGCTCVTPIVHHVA
Assay: IL-8 release assay in human epithelial keratinocytes adult (HEKa)
Type: cell-based
Details: HEKa cells, 3 ng/mL HEK-human IL-17AA + 10 ng/mL human TNFalpha; read-out: Rel EC50 IL-8 release assay
Outline: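 IL-8 release, quantified by HTRF and normalized to controls, reports IL-17 signaling in HEKa cells treated with compound plus final 3 ng/mL IL-17AA (HEK-derived) and 10 ng/mL TNF-alpha for 68-72 h; TNF-alpha-only wells set 100% inhibition. Four-parameter logistic fits (r^2>0.9) give relative IC50 and Emax; PrestoBlue flags cytotoxicity.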

| Structure (SMILES) | pEC50 |
| --- | --- |
| Cc1n[nH]c(C)c1-c1ccc(NC(=O)[C@H](CC2CC2)NC(=O)c2ccnn2C)cc1 [Example 243, N-[(1S)-1-(cyclopropylmethyl)-2-[4-(3,5-dimethyl-1H-pyrazol-4-yl)anilino]-2-oxo-ethyl]-2-methyl-pyrazole-3-carboxamide] | < 6.00 |
| Cc1n[nH]c(C)c1-c1ccc(NC(=O)[C@H](CC2CCC(F)(F)CC2)NC(=O)c2ccnn2C)cc1 [Example 253, N-[(1S)-1-[(4,4-difluorocyclohexyl)methyl]-2-[4-(3,5-dimethyl-1H-pyrazol-4-yl)anilino]-2-oxo-ethyl]-2-methyl-pyrazole-3-carboxamide] | < 6.00 |
| Cc1n[nH]c(C)c1-c1ccc(NC(=O)[C@@H](NC(=O)c2ccnn2C)[C@@H]2CCCc3c(F)cc(Br)cc32)cc1 [Example 262] | 6.00 to 7.00 |
| Cc1n[nH]c(C)c1-c1ccc(NC(=O)[C@@H](NC(=O)c2conc2C(C)C)C2CCC3(CC2)CC3)cc1 [Example 263, N-[(1S)-2-[4-(3,5-dimethyl-1H-pyrazol-4-yl)anilino]-2-oxo-1-spiro[2.5]octan-6-yl-ethyl]-3-isopropyl-isoxazole-4-carboxamidet] | 6.00 to 7.00 |
| CCn1nccc1C(=O)N[C@H](C(=O)Nc1ccc(-c2c(C)n[nH]c2C)cc1)C1CCC2(CC1)CC2 [Example 264, N-[(1S)-2-[4-(3,5-dimethyl-1H-pyrazol-4-yl)anilino]-2-oxo-1-spiro[2.5]octan-6-yl-ethyl]-2-ethyl-pyrazole-3-carboxamide] | 6.00 to 7.00 |
| Cc1n[nH]c(C)c1-c1ccc(NC(=O)C(NC(=O)c2ccnn2C(C)C)C2CCC(C)(C)C2)cc1 (stereo not shown) [Example 265, N-[1-(3,3-dimethylcyclopentyl)-2-[4-(3,5-dimethyl-1H-pyrazol-4-yl)anilino]-2-oxo-ethyl]-2-isopropyl-pyrazole-3-carboxamide] | 6.00 to 7.00 |
| Cc1n[nH]c(C)c1-c1ccc(NC(=O)C(NC(=O)c2ccnn2C)C2CCC(C)(C)C2)cc1 (stereo not shown) [Example 266, N-[1-(3,3-dimethylcyclopentyl)-2-[4-(3,5-dimethyl-1H-pyrazol-4-yl)anilino]-2-oxo-ethyl]-2-methyl-pyrazole-3-carboxamide] | 6.00 to 7.00 |
| Cc1n[nH]c(C)c1-c1ccc(NC(=O)[C@@H](NC(=O)c2ccnn2C)C2[C@H]3CCC[C@@H]23)cc1 (stereo partly drawn) [Example 267, N-[(1S)-1-[(1S,5R)-6-bicyclo[3.1.0]hexanyl]-2-[4-(3,5-dimethyl-1H-pyrazol-4-yl)anilino]-2-oxo-ethyl]-2-methyl-pyrazole-3-carboxamide] | < 6.00 |
| CCn1nncc1C(=O)N[C@H](C(=O)Nc1ccc(-c2c(C)n[nH]c2C)cc1)C(C1CC1)C1CC1 [Example 270, N-[(1S)-1-(dicyclopropylmethyl)-2-[4-(3,5-dimethyl-1H-pyrazol-4-yl)anilino]-2-oxo-ethyl]-3-ethyl-triazole-4-carboxamide] | 6.00 to 7.00 |
| Cc1n[nH]c(C)c1-c1ccc(NC(=O)[C@@H](NC(=O)c2nccn2C)C2CCCCC2)cc1 [Example 275, N-[(1S)-1-cyclohexyl-2-[4-(3,5-dimethyl-1H-pyrazol-4-yl)anilino]-2-oxo-ethyl]-1-methyl-imidazole-2-carboxamide] | < 6.00 |
| Cc1n[nH]c(C)c1-c1ccc(NC(=O)[C@@H](NC(=O)c2ccnn2C)[C@@H]2CCc3c(F)cc(Br)cc32)cc1 [Example 278, N-[(1S)-1-[(1R)-6-bromo-4-fluoro-indan-1-yl]-2-[4 (3,5-dimethyl-1H-pyrazol-4-yl)anilino]-2-oxo-ethyl]-2-methyl-pyrazole-3-carboxamide] | 6.00 to 7.00 |
| Cc1n[nH]c(C)c1-c1ccc(NC(=O)[C@H](CC(C)(C)C)NC(=O)c2ccnn2C)cc1 [Example 281] | 6.00 to 7.00 |
| Cc1n[nH]c(C)c1-c1ccc(NC(=O)C(NC(=O)c2ccnn2C(C)C)C(C)C2CC2)cc1 (stereo not shown) [Example 282] | 6.00 to 7.00 |
| Cc1n[nH]c(C)c1-c1ccc(NC(=O)[C@@H](NC(=O)c2ccnn2C(C)C)[C@@H](C)C2CC2)cc1 [Example 283, N-[(1S,2S)-2-cyclopropyl-1-[4-(3,5-dimethyl-1H-pyrazol-4-yl)phenyl]carbamoyl] propyl-2-isopropyl-pyrazole-3-carboxamide] | 6.00 to 7.00 |
| Cc1n[nH]c(C)c1-c1ccc(NC(=O)[C@@H](NC(=O)c2csc3cnccc23)C2CCCCC2)cc1 [Example 286, N-[(1S)-1-cyclohexyl-2-[4-(3,5-dimethyl-1H-pyrazol-4-yl)anilino]-2-oxo-ethyl]thieno[2,3-c]pyridine-3-carboxamide] | 6.00 to 7.00 |

Further lines, results first:

| pEC50 | Structure (SMILES) |
| --- | --- |
| > 7.00 | Cc1n[nH]c(C)c1-c1ccc(NC(=O)[C@@H](NC(=O)c2ccnn2C)C(C(C)C)C(C)C)cc1 [Example 244] |
| 6.00 to 7.00 | Cc1n[nH]c(C)c1-c1ccc(NC(=O)[C@@H](NC(=O)c2ccnn2C)C2C(C)(C)C2(C)C)cc1 [Example 245, N-[(1S)-2-[4-(3,5-dimethyl-1H-pyrazol-4-yl)anilino]-2-oxo-1-(2,2,3,3-tetramethylcyclopropyl)ethyl]-2-methyl-pyrazole-3-carboxamide] |
| 6.00 to 7.00 | Cc1n[nH]c(C)c1-c1ccc(NC(=O)[C@@H](NC(=O)c2ccnn2C)C2[C@H]3CCCC[C@@H]23)cc1 (stereo partly drawn) [Example 246, N-[(1S)-2-[4-(3,5-dimethyl-1H-pyrazol-4-yl)anilino]-1-[(1S,6R)-norcaran-7-yl]-2-oxo-ethyl]-2-methyl-pyrazole-3-carboxamide] |
| > 7.00 | Cc1n[nH]c(C)c1-c1ccc(NC(=O)[C@@H](NC(=O)c2ccnn2C)[C@H]2CCc3c(F)cc(F)cc32)cc1 [Example 249, N-[(1S)-1-[(1S)-4,6-difluoroindan-1-yl]-2-[4-(3,5-dimethyl-1H-pyrazol-4-yl)anilino]-2-oxo-ethyl]-2-methyl-pyrazole-3-carboxamide] |
| > 7.00 | Cc1n[nH]c(C)c1-c1ccc(NC(=O)[C@@H](NC(=O)c2ccnn2C)[C@H]2CCCC3(CC3)C2)cc1 [Example 250, N-[(1S)-2-[4-(3,5-dimethyl-1H-pyrazol-4-yl)anilino]-2-oxo-1-[(7S)-spiro[2.5]octan-7-yl]ethyl]-2-methyl-pyrazole-3-carboxamide] |
| > 7.00 | Cc1n[nH]c(C)c1-c1ccc(NC(=O)C(NC(=O)c2ccnn2C(C)C)C2CCCC2C)cc1 (stereo not shown) [Example 251, N-[2-[4-(3,5-dimethyl-1H-pyrazol-4-yl)anilino]-1-(2-methylcyclopentyl)-2-oxo-ethyl]-2-isopropyl-pyrazole-3-carboxamide] |
| > 7.00 | Cc1n[nH]c(C)c1-c1ccc(NC(=O)C(NC(=O)c2ccnn2C)[C@H]2CCCc3ccc(F)cc32)cc1 (stereo partly shown) [Example 261] |
| > 7.00 | CCn1nncc1C(=O)N[C@H](C(=O)Nc1ccc(-c2c(C)n[nH]c2C)cc1)C(C1CCC1)C1CCC1 [Example 271, N-[(1S)-1-[di(cyclobutyl)methyl]-2-[4-(3,5-dimethyl-1H-pyrazol-4-yl)anilino]-2-oxo-ethyl]-3-ethyl-triazole-4-carboxamide] |
| > 7.00 | Cc1n[nH]c(C)c1-c1ccc(NC(=O)[C@@H](NC(=O)c2cnnn2C)C(C2CCC2)C2CCC2)cc1 [Example 272, N-[(1S)-1-[di(cyclobutyl)methyl]-2-[4-(3,5-dimethyl-1H-pyrazol-4-yl)anilino]-2-oxo-ethyl]-3-methyl-triazole-4-carboxamide] |
| > 7.00 | Cc1n[nH]c(C)c1-c1ccc(NC(=O)[C@@H](NC(=O)c2cnnn2C(C)C)C(C2CCC2)C2CCC2)cc1 [Example 273, N-[(1S)-1-[di(cyclobutyl)methyl]-2-[4-(3,5-dimethyl-1H-pyrazol-4-yl)anilino]-2-oxo-ethyl]-3-isopropyl-triazole-4-carboxamide] |
| > 7.00 | Cc1nocc1C(=O)N[C@H](C(=O)Nc1ccc(-c2c(C)n[nH]c2C)cc1)C(C1CCC1)C1CCC1 [Example 274, N-[(1S)-1-[di(cyclobutyl)methyl]-2-[4-(3,5-dimethyl-1H-pyrazol-4-yl)anilino]-2-oxo-ethyl]-3-methyl-isoxazole-4-carboxamide] |
| > 7.00 | CCc1nocc1C(=O)N[C@H](C(=O)Nc1ccc(-c2c(C)n[nH]c2C)cc1)C1CCCCC1 [Example 276, N-[(1S)-1-cyclohexyl-2-[4-(3,5-dimethyl-1H-pyrazol-4-yl)anilino]-2-oxo-ethyl]-3-ethyl-isoxazole-4-carboxamide] |
| > 7.00 | Cc1n[nH]c(C)c1-c1ccc(NC(=O)[C@@H](NC(=O)c2conc2C(C)C)C2CCCCC2)cc1 [Example 277, N-[(1S)-1-cyclohexyl-2-[4-(3,5-dimethyl-1H-pyrazol-4-yl)anilino]-2-oxo-ethyl]-3-isopropyl-isoxazole-4-carboxamide] |
| > 7.00 | Cc1n[nH]c(C)c1-c1ccc(NC(=O)[C@@H](NC(=O)c2ccnn2C(C)C)[C@H]2CCOc3c(F)cc(F)cc32)cc1 [Example 279, N-[(1S)-1-[(4S)-6,8-difluorochroman-4-yl]-2-[4-(3,5-dimethyl-1H-pyrazol-4-yl)anilino]-2-oxo-ethyl]-2-isopropyl-pyrazole-3-carboxamide] |
| > 7.00 | Cc1n[nH]c(C)c1-c1ccc(NC(=O)[C@@H](NC(=O)c2ccnn2C(C)C)[C@H]2CCOc3c(F)cccc32)cc1 [Example 287, N-[(1S)-2-[4-(3,5-dimethyl-1H-pyrazol-4-yl)anilino]-1-[(4S)-8-fluorochroman-4-yl]-2-oxo-ethyl]-2-isopropyl-pyrazole-3-carboxamide] |
| > 7.00 | Cc1n[nH]c(C)c1-c1ccc(NC(=O)[C@@H](NC(=O)c2ccnn2C(C)C)[C@H]2CCOc3cc(F)ccc32)cc1 [Example 288, N-[(1S)-2-[4-(3,5-dimethyl-1H-pyrazol-4-yl)anilino]-1-[(4S)-7-fluorochroman-4-yl]-2-oxo-ethyl]-2-isopropyl-pyrazole-3-carboxamide] |
